Results on four compounds are retold here after ChEMBL document CHEMBL5550205, “Discovery of a NCOA4 Degrader for Labile Iron-Dependent Ferroptosis Inhibition” (J Med Chem, 2024).

The source made the active and inactive calls. The calls are words filed in the database; no cut-off is given here. Residues, ends and D or L forms follow the SMILES beside them. *: point of attachment. Cbz = O=C(OCc1ccccc1)*

One assay concerns AML12. Briefly: Protection against CCl4-induced ferroptosis in mouse AML12 cells assessed as cell viability. The class given is functional, cell-based.
Assay [1] concerns the target T1, von Hippel-Lindau disease tumor suppressor/Nuclear receptor coactivator 4 (Homo sapiens, UniProt P40337+Q13772). Briefly: PROTAC activity at NCOA4/VHL in human HeLa cells assessed as induction of NCOA4 degradation at 4 uM measured for 24 hrs by immunoprecipitation analysis. The class given is cell-based.
Assay [2] has as its target T1, von Hippel-Lindau disease tumor suppressor/Nuclear receptor coactivator 4. Put plainly: PROTAC activity at NCOA4/VHL in human HeLa cells assessed as induction of NCOA4 degradation at 50 nM measured for 24 hrs by Western blot analysis. The class given is cell-based. A general note: In western blotting, separated proteins are transferred to a membrane and probed.

T1 sequence (P40337 whole entry, looked up): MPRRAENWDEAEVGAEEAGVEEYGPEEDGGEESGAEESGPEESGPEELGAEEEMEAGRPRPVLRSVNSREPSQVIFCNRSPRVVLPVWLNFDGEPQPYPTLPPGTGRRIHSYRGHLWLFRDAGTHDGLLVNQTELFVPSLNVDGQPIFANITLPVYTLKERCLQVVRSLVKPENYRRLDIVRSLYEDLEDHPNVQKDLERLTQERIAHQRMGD
T1 sequence (Q13772 whole entry, looked up): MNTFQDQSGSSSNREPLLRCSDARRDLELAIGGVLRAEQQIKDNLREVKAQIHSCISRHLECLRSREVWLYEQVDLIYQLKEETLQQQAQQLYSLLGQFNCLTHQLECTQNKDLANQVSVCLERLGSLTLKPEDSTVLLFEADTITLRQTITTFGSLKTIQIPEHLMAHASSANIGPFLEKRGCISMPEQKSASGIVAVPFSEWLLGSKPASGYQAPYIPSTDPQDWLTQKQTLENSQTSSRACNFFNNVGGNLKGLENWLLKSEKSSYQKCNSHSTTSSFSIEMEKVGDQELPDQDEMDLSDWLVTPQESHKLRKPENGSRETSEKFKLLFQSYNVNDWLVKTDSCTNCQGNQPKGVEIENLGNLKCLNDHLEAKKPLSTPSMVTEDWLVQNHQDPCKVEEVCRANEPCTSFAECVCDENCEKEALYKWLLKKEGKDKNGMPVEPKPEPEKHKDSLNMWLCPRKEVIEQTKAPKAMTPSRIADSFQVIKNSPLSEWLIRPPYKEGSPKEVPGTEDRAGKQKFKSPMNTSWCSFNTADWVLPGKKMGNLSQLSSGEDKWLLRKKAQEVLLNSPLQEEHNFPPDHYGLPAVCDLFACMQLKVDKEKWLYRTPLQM

The term EC50 denotes the concentration needed to bring the measured effect to its halfway point. In the case of `CC(=O)N(O)CCCCCNC(=O)CCC(=O)N(O)CCCCCNC(=O)CCC(=O)N(O)CCCCCN` [DEFEROXAMINE], in the assay on AML12, the concentration for a half-maximal effect (EC50) came to 8.83 µM.

For `CCOC(=O)c1ccc(NC2CCCCC2)c(N)c1`, the concentration for a half-maximal effect (EC50) with AML12 came to 0.104 µM. Take `CC(C)C[C@@H](C=O)NC(=O)[C@H](CC(C)C)NC(=O)[C@H](CC(C)C)NC(=O)OCc1ccccc1` (Cbz-Leu-Leu-Leu-aldehyde): the result in assay [1] was Active. Take `CN1CCN(c2ccc3nc(-c4cccc(N5CCc6cc(F)ccc6C5)c4)[nH]c3c2)CC1`: the result in assay [2] was Active.
